How the values were obtained:
[1] = target: T1, cofactor-independent phosphoglycerate mutase (iPGAM) (Brugia malayi, UniProt Q4VWF8); assay: coupled enzyme assay (NADH absorbance at […] nm), dose-response; luminescence (Kinase-Glo) confirmation; type: biochemical
T1 construct: gene ipgm-1; Full-length, histidine-tagged
T1 sequence (Q4VWF8 1-515): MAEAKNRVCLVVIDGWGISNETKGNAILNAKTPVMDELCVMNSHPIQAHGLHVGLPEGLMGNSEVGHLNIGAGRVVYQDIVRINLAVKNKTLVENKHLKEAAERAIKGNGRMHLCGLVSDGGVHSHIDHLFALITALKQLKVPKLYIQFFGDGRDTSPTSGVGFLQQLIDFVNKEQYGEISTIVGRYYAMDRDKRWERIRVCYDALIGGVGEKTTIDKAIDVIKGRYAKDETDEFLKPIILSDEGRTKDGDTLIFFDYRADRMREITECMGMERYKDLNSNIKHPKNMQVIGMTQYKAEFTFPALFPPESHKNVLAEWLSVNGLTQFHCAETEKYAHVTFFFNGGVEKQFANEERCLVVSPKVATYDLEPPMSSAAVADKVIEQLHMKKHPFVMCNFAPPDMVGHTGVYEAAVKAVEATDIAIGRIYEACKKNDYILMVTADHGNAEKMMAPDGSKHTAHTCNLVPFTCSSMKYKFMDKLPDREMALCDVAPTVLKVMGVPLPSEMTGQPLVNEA

[2] = target: T2, cofactor-independent phosphoglycerate mutase (iPGAM) (Caenorhabditis elegans, UniProt G5EFZ1); assay: HTS coupled enzyme assay at […] ([…] inhibition), re-tested and reconfirmed; type: biochemical
T2 construct: gene ipgm-1; Full-length, histidine-tagged
T2 sequence (G5EFZ1 1-539): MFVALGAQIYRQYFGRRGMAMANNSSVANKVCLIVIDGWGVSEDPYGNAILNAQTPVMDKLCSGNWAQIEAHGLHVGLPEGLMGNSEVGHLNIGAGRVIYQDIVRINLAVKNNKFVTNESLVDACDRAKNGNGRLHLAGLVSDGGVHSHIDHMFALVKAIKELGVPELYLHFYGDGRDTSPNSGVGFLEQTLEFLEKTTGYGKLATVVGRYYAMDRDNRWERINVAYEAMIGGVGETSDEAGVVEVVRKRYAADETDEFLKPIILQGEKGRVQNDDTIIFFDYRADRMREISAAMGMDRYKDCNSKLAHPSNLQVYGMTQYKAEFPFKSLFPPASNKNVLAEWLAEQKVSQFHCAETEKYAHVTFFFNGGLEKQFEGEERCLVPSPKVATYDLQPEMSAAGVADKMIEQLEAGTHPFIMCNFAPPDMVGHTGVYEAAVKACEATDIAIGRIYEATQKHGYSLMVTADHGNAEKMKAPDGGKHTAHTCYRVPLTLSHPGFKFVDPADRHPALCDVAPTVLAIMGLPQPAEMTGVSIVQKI

[3] = target: T1, cofactor-independent phosphoglycerate mutase (iPGAM); assay: coupled enzyme assay (NADH absorbance at […] nm), luminescence (Kinase-Glo) confirmation; type: biochemical
[4] = substrate: O=C(O)[C@H](O)COP(=O)(O)O; assay: enzyme kinetics (Km), coupled assay; type: biochemical, Brugia malayi; details: Mg2+
[5] = substrate: O=C(O)[C@H](O)COP(=O)(O)O; assay: enzyme kinetics (Km), coupled assay; type: biochemical, Caenorhabditis elegans; details: Mg2+

For Nc1cc2cccnc2c2ncccc12 [NCDS-1, 5-amino-1,10-phenanthroline], the IC50 [1] was > 10 µM.

In the case of CCc1cc2c[n+](C3CCCCC3)sc2s1 [Genz-2], the inhibition at 10 µM [2] is reported as > 40% and the IC50 [3] is reported as > 10 µM.

B1: cofactor-independent phosphoglycerate mutase (iPGAM) (Brugia malayi) (protein)
chain: MAEAKNRVCLVVIDGWGISNETKGNAILNAKTPVMDELCVMNSHPIQAHGLHVGLPEGLMGNSEVGHLNIGAGRVVYQDIVRINLAVKNKTLVENKHLKEAAERAIKGNGRMHLCGLVSDGGVHSHIDHLFALITALKQLKVPKLYIQFFGDGRDTSPTSGVGFLQQLIDFVNKEQYGEISTIVGRYYAMDRDKRWERIRVCYDALIGGVGEKTTIDKAIDVIKGRYAKDETDEFLKPIILSDEGRTKDGDTLIFFDYRADRMREITECMGMERYKDLNSNIKHPKNMQVIGMTQYKAEFTFPALFPPESHKNVLAEWLSVNGLTQFHCAETEKYAHVTFFFNGGVEKQFANEERCLVVSPKVATYDLEPPMSSAAVADKVIEQLHMKKHPFVMCNFAPPDMVGHTGVYEAAVKAVEATDIAIGRIYEACKKNDYILMVTADHGNAEKMMAPDGSKHTAHTCNLVPFTCSSMKYKFMDKLPDREMALCDVAPTVLKVMGVPLPSEMTGQPLVNEA
notes: Full-length, histidine-tagged
B1 showed a Km [4] of 370 µM.

B2: cofactor-independent phosphoglycerate mutase (iPGAM) (Caenorhabditis elegans) (protein)
chain: MFVALGAQIYRQYFGRRGMAMANNSSVANKVCLIVIDGWGVSEDPYGNAILNAQTPVMDKLCSGNWAQIEAHGLHVGLPEGLMGNSEVGHLNIGAGRVIYQDIVRINLAVKNNKFVTNESLVDACDRAKNGNGRLHLAGLVSDGGVHSHIDHMFALVKAIKELGVPELYLHFYGDGRDTSPNSGVGFLEQTLEFLEKTTGYGKLATVVGRYYAMDRDNRWERINVAYEAMIGGVGETSDEAGVVEVVRKRYAADETDEFLKPIILQGEKGRVQNDDTIIFFDYRADRMREISAAMGMDRYKDCNSKLAHPSNLQVYGMTQYKAEFPFKSLFPPASNKNVLAEWLAEQKVSQFHCAETEKYAHVTFFFNGGLEKQFEGEERCLVPSPKVATYDLQPEMSAAGVADKMIEQLEAGTHPFIMCNFAPPDMVGHTGVYEAAVKACEATDIAIGRIYEATQKHGYSLMVTADHGNAEKMKAPDGGKHTAHTCYRVPLTLSHPGFKFVDPADRHPALCDVAPTVLAIMGLPQPAEMTGVSIVQKI
notes: Full-length, histidine-tagged
B2 showed a Km [5] of 380 µM.
